Molecules are shown by their SMILES.

In the assay the target is T1, Full-length glucokinase (beta cell isoform) (Homo sapiens, UniProt P35557).
T1 construct: Full-length glucokinase (beta cell isoform) was His-tagged at N-terminus; His tag (N); made in house
T1 sequence (P35557 1-465): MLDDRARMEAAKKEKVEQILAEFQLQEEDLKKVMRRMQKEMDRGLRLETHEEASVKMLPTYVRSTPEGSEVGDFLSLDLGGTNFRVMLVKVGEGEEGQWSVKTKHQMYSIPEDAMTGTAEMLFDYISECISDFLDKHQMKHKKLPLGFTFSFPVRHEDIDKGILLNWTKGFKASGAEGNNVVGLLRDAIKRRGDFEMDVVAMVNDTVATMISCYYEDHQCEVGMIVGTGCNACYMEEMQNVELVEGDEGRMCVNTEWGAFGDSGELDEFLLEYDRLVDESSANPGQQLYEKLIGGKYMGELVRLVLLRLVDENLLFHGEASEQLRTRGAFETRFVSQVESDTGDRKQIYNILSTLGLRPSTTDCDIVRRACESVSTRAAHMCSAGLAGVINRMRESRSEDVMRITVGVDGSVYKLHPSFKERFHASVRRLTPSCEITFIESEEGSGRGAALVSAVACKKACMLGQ
The experiment in a line: Glucokinase biochemical assay (PK/LDH-coupled, NADH depletion at 340 nm): % activation, EC50, % max activation. Conditions: 5 mM glucose; for activation at 10 µM: read-out: % Activation at 10 uM; for EC50: GK activation, read-out: EC50; for Emax: read-out: % Max Activation. In short, it runs like this:
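Activation expressed as (Va/Vo−1)×100, where initial rates with and without compound come from NADH depletion at 340 nm over 200–900 s. Enzyme is His-tagged human beta-cell GK, full length, run at room temperature in HEPES buffer with 1 mM ATP and 5 mM glucose. DMSO 1%.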

[1] abbreviates: 10 uM compound, % Activation=(Va/Vo−1)×100.

As to `Cn1cc(C(=O)COc2cc(C(=O)Nc3ccn(C)n3)cc3c2CC(C)(C)O3)cn1` [Example 105, 2,2-Dimethyl-4-[2-(1-methyl-1H-pyrazol-4-yl)-2-oxo-ethoxy]-2,3-dihydro-benzofuran-6-carboxylic acid (1-methyl-1H-pyrazol-3-yl)-amide], the EC50 (commonly the concentration needed to bring the measured effect to its halfway point) was 9400 nM. Besides, the activation at 10 µM under setting [1] came to 70.1%. In addition, the Emax (fitted maximum activation) is 102%.
As to `CCOc1ccc(NC(=O)c2cc(Oc3ccc(S(C)(=O)=O)cc3)c3cc(C)oc3c2)nc1` [Example 270, N-(5-ethoxypyridin-2-yl)-2-methyl-4-(4-(methylsulfonyl)-phenoxy)benzofuran-6-carboxamide], the EC50 was determined as 7100 nM. Also, under setting [1], the activation at 10 µM was 98.2%. Besides, the Emax (fitted maximum activation) amounted to 139%.
For the compound `Cn1ccc(NC(=O)c2cc(Oc3ccc(-c4ncon4)cc3)c3c(c2)OC(C)(C)C3)n1` [Example 187, 2,2-Dimethyl-4-(4-[1,2,4]oxadiazol-3-yl-phenoxy)-2,3-dihydro-benzofuran-6-carboxylic acid (1-methyl-1H-pyrazol-3-yl)-amide], the EC50 is above 10000 nM. In addition, under setting [1], the activation at 10 µM came out at 178%.
With `Cc1cc2cc(C(=O)Nc3ccn(C)n3)cc(O[C@@H](C)Cc3ccccc3)c2o1` [Example 340, 2-Methyl-7-[(1S)-1-methyl-2-phenylethoxy]-N-(1-methyl-1H-pyrazol-3-yl)-1-benzofuran-5-carboxamide], the EC50 is above 10000 nM. Further, the activation at 10 µM under setting [1] worked out at 41.2%.
For `CC(Oc1cc(C(=O)Nc2ccn(C)n2)cc2c1CC(C)(C)O2)c1cnccn1` (centres unmarked) [Example 82, 2,2-Dimethyl-4-(1-pyrazin-2-yl-ethoxy)-2,3-dihydro-benzofuran-6-carboxylic acid (1-methyl-1H-pyrazol-3-yl)-amide], the EC50 is 5100 nM. In addition, the activation at 10 µM under setting [1] was determined as 110%. Also, under “fitted maximum activation”, the Emax turned out to be 135%.
With `CC1(C)Cc2c(Oc3ccc(S(C)(=O)=O)cc3)cc(C(=O)Nc3cnccn3)cc2O1` [Example 17, 4-(4-Methanesulfonyl-phenoxy)-2,2-dimethyl-2,3-dihydrobenzofuran-6-carboxy-lic acid pyrazin-2-ylamide], the EC50 amounted to 510 nM. Moreover, under setting [1], the activation at 10 µM amounted to 161%. Further, the Emax (fitted maximum activation) was determined as 165%.
Take `Cc1ccnc(NC(=O)c2cc(Oc3ccc(S(C)(=O)=O)cc3)c3c(c2)OC(C)(C)C3)c1` [Example 23, 4-(4-Methanesulfonyl-phenoxy)-2,2-dimethyl-2,3-dihydro-benzofuran-6-carboxylic acid(4-methyl-pyridin-2-yl)-amide]: the EC50 turned out to be 1400 nM. Under setting [1], the activation at 10 µM is 46.1%. Moreover, the Emax (fitted maximum activation) was 70%.
For `CCNC(=O)c1ncc(Oc2cc(C(=O)Nc3ccn(C)n3)cc3c2CC(C)(C)O3)cc1NCC` [Example 175, 5-[2,2-Dimethyl-6-(1-methyl-1H-pyrazol-3-ylcarbamoyl)-2,3-dihydro-benzofuran-4-yloxy]-3-ethylamino-pyridine-2-carboxylic acid ethylamide], the EC50 is 770 nM. Moreover, the activation at 10 µM under setting [1] turned out to be 233%. Also, where the note is “fitted maximum activation”, the Emax stood at 251%.
`C[C@@H](Cc1ccccc1)Oc1cc(C(=O)Nc2ccn(C)n2)cc2c1CC(C)(C)O2` [Example 78, 2,2-Dimethyl-4-((S)-1-methyl-2-phenyl-ethoxy)-2,3-dihydro-benzofuran-6-carboxylic acid (1-methyl-1H-pyrazol-3-yl)-amide]: the EC50 stood at 1470 nM. For the same compound, under setting [1], the activation at 10 µM was found to be 139%. Also, the Emax (fitted maximum activation) came to 149%.
For the compound `COCC1(C)Cc2c(Oc3ccc(S(=O)(=O)C4CC4)cc3)cc(C(=O)Nc3ccn(C)n3)cc2O1` (single isomer, unassigned; (-)) [Example 247, (−)-4-(4-Cyclopropanesulfonyl-phenoxy)-2-methoxymethyl-2-methyl-2,3-dihydro-benzofuran-6-carboxylic acid (1-methyl-1H-pyrazol-3-yl)-amide], the EC50 turned out to be 83 nM. In addition, the “% Activation at 10 uM” value under setting [1] is recorded as 252%. In addition, for the setting “fitted maximum activation”, the “% Max Activation” value stood at 254%.
Turning to `CC1(C)Cc2c(Oc3ccc(S(C)(=O)=O)cc3)cc(C(=O)Nc3ccon3)cc2O1` [Example 26, 4-(4-Methanesulfonyl-phenoxy)-2,2-dimethyl-2,3-dihydro-benzofuran-6-carboxylic acid isoxazol-3-ylamide], the EC50 is 400 nM. The activation at 10 µM under setting [1] came to 197%. In addition, the Emax (fitted maximum activation) stood at 200%.
In the same order, the values of `CNC(=O)c1ncc(Oc2cc(C(=O)Nc3ccn(C)n3)cc3c2CC(C)(C)O3)cn1` [Example 171, 5-[2,2-Dimethyl-6-(1-methyl-1H-pyrazol-3-ylcarbamoyl)-2,3-dihydro-benzofuran-4-yloxy]-pyrimidine-2-carboxylic acid methylamide] are 3600 nM, 171% and 213%.
Consider `CC(C)Oc1cc(C(=O)Nc2ccn(C)n2)cc2c1CC(COc1ccccc1)O2` (centres unmarked) [Example 214, 4-Isopropoxy-2-phenoxymethyl-2,3-dihydro-benzofuran-6-carboxylic acid (1-methyl-1H-pyrazol-3-yl)-amide], for which, under setting [1], the activation at 10 µM was 12%.
Consider `COc1cnc(NC(=O)c2cc(Oc3ccc(S(=O)(=O)N4CCC4)cc3)c3cc(C)oc3c2)cn1` [Example 303, 4-(4-(Azetidin-1-ylsulfonyl)phenoxy)-N-(5-methoxypyrazin-2-yl)-2-methyl-benzofuran-6-carboxamide], for which the EC50 is 650 nM. Further, under setting [1], the activation at 10 µM worked out at 195%. Moreover, the Emax (fitted maximum activation) stood at 179%.
Taken in the same sequence, the figures for `CC(Oc1cc(C(=O)Nc2ccn(C)n2)cc2c1CC(C)(C)O2)c1ccccn1` (centres unmarked) [Example 81, 2,2-Dimethyl-4-(1-pyridin-2-yl-ethoxy)-2,3-dihydro-benzofuran-6-carboxylic acid (1-methyl-1H-pyrazol-3-yl)-amide] were 5300 nM, 112% and 148%.
With `Cn1ccc(NC(=O)c2cc(Oc3ccc(S(=O)(=O)C4CC4)cc3)c3c(c2)OC(C)(CO)C3)n1` (centres unmarked) [Example 245, 4-(4-Cyclopropanesulfonyl-phenoxy)-2-hydroxymethyl-2-methyl-2,3-dihydro-benzofuran-6-carboxylic acid (1-methyl-1H-pyrazol-3-yl)-amide], the EC50 is 130 nM. Under setting [1], the activation at 10 µM is 196%. Moreover, the Emax (fitted maximum activation) amounted to 236%.
As to `Cn1ccc(NC(=O)c2cc(Oc3ccc(S(=O)(=O)C4CCC4)cc3)c3c(c2)OC(C)(C)C3)n1` [Example 123, 4-(4-Cyclobutanesulfonyl-phenoxy)-2,2-dimethyl-2,3-dihydro-benzofuran-6-carboxylic acid (1-methyl-1H-pyrazol-3-yl)-amide], the EC50 was 55 nM. The activation at 10 µM under setting [1] stood at 189%. For the same compound, for the setting “fitted maximum activation”, the Emax turned out to be 150%.
As for `Cn1ccc(NC(=O)c2cc(Oc3ccc(S(C)(=O)=O)cc3)c3cc(CN4CCCC4=O)oc3c2)n1` [Example 318, N-(1-Methyl-1H-pyrazol-3-yl)-4-[4-(methylsulfonyl)phenoxy]-2-[(2-oxopyrrolidin-1-yl)methyl]-1-benzofuran-6-carboxamide], the EC50 is above 10000 nM. Also, under setting [1], the activation at 10 µM stood at 91.3%.
Take `Cn1ccc(NC(=O)c2cc(Oc3cc(F)c(C(=O)N4CCC4)c(F)c3)c3c(c2)OC(C)(C)C3)n1` [Example 110, 4-[4-(Azetidine-1-carbonyl)-3,5-difluoro-phenoxy]-2,2-dimethyl-2,3-dihydro-benzofuran-6-carboxylic acid (1-methyl-1H-pyrazol-3-yl)-amide]: the EC50 is 72 nM. Besides, the activation at 10 µM under setting [1] worked out at 139%. Further, the Emax (fitted maximum activation) is 131%.
As to `CO[C@H]1CCN(C(=O)c2ccc(Oc3cc(C(=O)Nc4ccn(C)n4)cc4c3CC(C)(C)O4)cc2F)C1` [Example 60, 4-[3-Fluoro-4-((S)-3-methoxy-pyrrolidine-1-carbonyl)-phenoxy]-2,2-dimethyl-2,3-dihydro-benzofuran-6-carboxylic acid(1-methyl-1H-pyrazol-3-yl)-amide], the EC50 worked out at 270 nM. The activation at 10 µM under setting [1] was determined as 172%. The Emax (fitted maximum activation) was found to be 167%.
For the compound `Cc1ccc(NC(=O)c2cc(Oc3ccc(S(C)(=O)=O)cn3)c3cc(C)oc3c2)nc1` [Example 281, 2-Methyl-N-(5-methylpyridin-2-yl)-4-(5-(methylsulfonyl)pyridin-2-yloxy)-benzofuran-6-carboxamide], the EC50 is 2100 nM. Under setting [1], the activation at 10 µM was 92.7%. The Emax (fitted maximum activation) stood at 87%.
Regarding `Cc1csc2cc(C(=O)Nc3ccn(C)n3)cc(Oc3ccc(S(C)(=O)=O)cc3)c12` [Example 351, 3-Methyl-N-(1-methyl-1H-pyrazol-3-yl)-4-[4-(methylsulfonyl)-phenoxy]-1-benzothiophene-6-carboxamide], the activation at 10 µM under setting [1] is 0.9%.
Regarding `Cc1ccc(NC(=O)c2cc(Oc3ccc(S(C)(=O)=O)cc3)c3oc(C)nc3c2)nc1` [Example 369, 2-Methyl-N-(5-methylpyridin-2-yl)-7-[4-(methylsulfonyl)-phenoxy]-1,3-benzoxazole-5-carboxamide], the EC50 came out at 3700 nM. Also, the activation at 10 µM under setting [1] stood at 66.1%. The Emax (fitted maximum activation) stood at 66%.

Source of the values: patent US8119624B2, “Fused phenyl amido heterocyclic compounds” (Pfizer Inc., priority 2006, dated 2012).
